In patent US12121596B2, “Near infrared fluorescent dyes, formulations and related methods” (Washington University, priority 2019, dated 2024):
Positions of bridges follow the written chain, without caps; N, C: chain ends. Non-standard residues stand in square brackets, D forms with d. Residues, ends and D or L forms follow the SMILES beside them. *: point of attachment. X1 = CC1(C)C(/C=C/C=C/C=C/C=C2/N(CCC(=O)*)c3ccc4ccccc4c3C2(C)C)=[N+](CCC(=O)[O-])c2ccc3ccccc3c21

Experiments:
[1] = test system: lung (A549), breast (MDA-MB-231 and 4T1), and myeloid leukemia (HL60) cell lines; test: Cellular uptake in cancer cell lines, live-cell imaging; format: cell-based; conditions: A549, MDA-MB-231, 4T1, HL60
Description: In general, cultured cancer cells were grown and incubated with the indicated amount of probe in Lab-Tek 8-chambered slides for the indicated time durations. Cells were washed with PBS at selected time points and underwent conventional slide preparation, ICC if indicated, and viewing under epifluorescence or confocal. For live-cell imaging of LS301, internalization at 37° C. in human dermal fibroblasts (Coriell Cell Technologies) and tumor cells including 4T1luc, MDA-MB-231, 5TGM, A549, and HL60 (ATCC) cells were cultured in appropriate media supplemented with 10% […] and penicillin/streptomycin and incubated at 37° C. in 5% CO2 incubator. The cells were grown on Lab-Tek 8-chamber slides (Nunc Inc. Rochester, NY) in the culture medium overnight before the experiment. The compounds were dissolved in 20% DMSO in […] PBS (pH 7.4) (Sigma, St. Louis, MO) for stocking solution and mixed with culture medium to reach the final concentration. Cells were incubated with 1 μM compounds in chamber slides at different time points at 37° C. After LS301 treatment, the culture media was removed and followed by adding culture media containing SYTO 13 nuclear dye from (Thermo Fisher Scientific, Waltham, MA) for 45 minutes at 37° C. For assessing cellular colocalization of LS301 with lipid rafts, the Vybrant AlexaFluor 488 Lipid Raft Labeling Kit (Thermo Fisher Scientific, Waltham, MA, USA) was used per the manufacturer's instructions. […]. LS301 and AlexaFluor 488 fluorescence were imaged using the cypate filter set (Ex/Em 750-800 nm/818-873 nm) and fluorescein isothiocyanate (FITC) filter set (Ex/Em 460-500/510-560 nm), respectively.

[2] = test system: cells expressing wild-type ANXA2 or mutant ANXA2 (Y23A); test: LS301 internalization with insulin in cells expressing wild-type or mutant ANXA2 (Y23A); format: cell-based
Description: For LS301 cell internalization studies involving insulin treatment, cells were grown on Lab-Tek slides overnight. HEK 293T cells (or in some cases 4T1 cells) were maintained in DMEM medium supplemented with 10% fetal bovine serum and 100 units/mL penicillin. After DNA transfection, the HEK 293TAnxa2-WT-GFP and HEK 293TAnxa2-Y23A-GFP cells were maintained in Dulbecco's Modified Eagle's medium (DMEM) medium with 500 μg/mL G418, 10% fetal bovine serum (FBS), and 100 units/mL penicillin. The medium was changed, and cells were grown in serum-starved conditions overnight. Cells were then cultivated with or without 100 nM insulin for 4 h. Then 1 μM of LS301 was added to each sample to incubated for 4 hours or 24 hours at 37° C. Cells were imaged using an FV1000 confocal microscope, and the mean fluorescence intensities (Ex/Em=488/495 nm; Ex/Em=590/617 nm; Ex/Em=780/805-830 nm) were determined using the FV1000 software.

[3] = test system: fibroblast co-cultured with ANXA2-positive GFP-expressing 4T1 cells; test: Fibroblast and 4T1 co-culture uptake; format: cell-based
Description: For co-culture experiments on intercellular pANXA2/ANXA2 transfer, fibroblasts (FB) (5×10^4 cells/well) were seeded on a 35-mm glass-bottom Petri dish (MarTek Cor. Ashland, MA, USA) overnight before seeding of 5×10^4 of cancer cells and further culture overnight before the experiment. LS301 (1 μM) was incubated with co-cultures of FB and ANXA2-YFP transfected HL60 cells, co-cultures of FB and wild-type HL60 cells, or co-cultures of FB and 4T1-GFP cells at 37° C. for 3 hours and then washed twice with 0.01 M PBS (pH 7.4). Then, the cells were fixed with 4% paraformaldehyde for 10 minutes.

[4] = test system: breast cancer patient-derived xenograft; test: In vivo NIR imaging of tumor retention; design: species or system mice
Description: To establish the various tumor models, nude, Balb/c, or C57BL6 mice were injected with 10^5-10^7 tumor cells subcutaneously on unilateral or bilateral flanks. In some cases, spontaneous tumor models were used. Animals injected subcutaneously with saline served as sham tumor controls. For near-infrared imaging, 100 μL volumes of 60 μM LS301 or cypate in PBS were injected intravenously by lateral tail vein, and animals were imaged using a Pearl Small Animal Imager (LI-COR Biotechnology, Lincoln, NE, USA) at the indicated time points. In some experiments, probes were formulated in 1% albumin in PBS. Animals were shaved using commercially available hair removal equipment and products before imaging. For experiments involving further tissue analysis, animals were anesthetized with isoflurane and euthanized by cervical dislocation under anesthesia. Organs were harvested by surgical dissection. For quantitative organ biodistribution studies, individual regions of interest were drawn around each organ of interest, and fluorescence was quantified using the Pearl Small Animal Imager software.

[5] = Solubility and dilution stability of LS301 stock solutions; format: physicochemical; conditions: transparent solution, no precipitate after centrifugation
Description: At room temperature (˜25° C.), 200 μL of DMSO was added to 0.5 mg LS301 and vortexed for about 1 minute to homogenize. The solution was centrifuged to remove any non-dissolved components. The concentration was measured via absorbance.
Generally, solution concentrations ranged between 290 and 330 μM. This concentrated solution was diluted dropwise into 800 μL phosphate-buffered saline (PBS) calculated such that the final concentration was 60 μM LS301 and that the final concentration was 20% DMSO/80% PBS by volume (“20% DMSO”).
A 1:1 PEG400/Ethanol solution (v/v) was prepared by mixing 4 mL of PEG400 and 4 mL of ethanol and vortexing at high speed for 1 minute. 200 μL of this 1:1 solution was added to about 0.5 mg of LS301 to produce a transparent solution (>300 μM). No precipitate was observed after centrifugation.
LS301's solubility in ethanol ranged near the cutoff for producing a 20% ethanol/PBS solution. […] The 1:1 PEG400/ethanol solution could maintain stability up to about 1-to-16 dilution. In vivo, a screening test was done by IV injection of 60 μM solution into a Balb/c mouse with two 4T1luc tumors dorsally injected. […] To confirm LS301's multitumor affinity in the new solvent, solutions were tested against HT1080, A431, and DBT tumor-bearing mice.

CC1(C)C(/C=C/C=C/C=C/C=C2/N(CCC(=O)N[C@@H]3CSSC[C@@H](C(=O)N[C@@H](CCCCN)C(=O)O)NC(=O)[C@@H]4CCCN4C(=O)[C@H](CO)NC(=O)[C@H](CC(=O)O)NC(=O)[C@H](CCCNC(=N)N)NC(=O)CNC3=O)c3ccc4ccccc4c3C2(C)C)=[N+](CCC(=O)[O-])c2ccc3ccccc3c21 [LS301, cypate-cyclic (DCys-Gly-Arg-Asp-Ser-Pro-Cys)-Lys-OH] (X1-[dC]GRDSPCK-OH; disulfide 1-7)
time over which maximum cellular uptake is maintained [1]: over 24 hours
time to maximum concentration of cellular uptake [1]: 12 h
cellular uptake of LS301, mutant ANXA2 (Y23A) cells ([2]; insulin stimulation): minimal LS301 uptake
cellular uptake of LS301, wild-type ANXA2 cells ([2]; stimulation with insulin): increased pANXA2 expression and cellular uptake of LS301
uptake in co-culture [3]: LS301 uptake by tumor cells and fibroblasts
time remaining in the tumor lesion ([4]; breast cancer patient-derived xenograft): over 96 hours
tumor coverage ([4]; small tumors (<5 mm)): about 100%
solution concentration in 1:1 PEG400/Ethanol [5]: > 300 µM
